The assay has as its system drug sensitive strain. The assay can be described thus: Antibiotic susceptibility profiling with recombinant PB1 phages, drug sensitive strain. It counts as cell-based, Pseudomonas aeruginosa. An excerpt: In some embodiments of the method, the differences in the reporter gene expression of the recombinant PB1 bacteriophage observed in the antibiotic treated sub-sample and the untreated control sub-sample is defined as μ.

The source of these data is US10174293B1, “Recombinant PB1 bacteriophages and uses thereof” (Charles Stark Draper Laboratory, Inc., priority 2018, dated 2019).

Turning to gentamicin, under “versus 'no drug' sample (FIG. 4B)”, the “luciferase activity of antibiotic treated sample” value is given as “decline in luciferase activity”. The “μ value over time” value (μ = difference in reporter expression, treated vs untreated (FIG. 4B)) is “steady increase in μ value over time”.
